Where “and” joins values, the source holds several entries; their conditions need not be identical. Equal entries are not always repeated.
Tested on: CEM cells HIV-1 protection, formazan growth assay
Assay: NCI AIDS Antiviral Assay
Details: for IC50: measured here: growth of uninfected CEM cells
Outline: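 Human CEM cells, uninfected and HIV-1-infected, received five drug concentrations, and growth was read by soluble formazan assay. Compounds giving at least 50% protection were retested; reproducible 100% protection defined confirmed active.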

| SMILES | EC50 | IC50 |
| --- | --- | --- |
| O=C1NC(=O)C(=Cc2ccc(-c3ccccc3)cc2)C(=O)N1 | > 24.5 µM | > 24.5 µM |
| COC(=O)c1csc(-c2nc(CCNC(=O)OC(C)(C)C)sc2Br)n1 | > 79.4 µM | 31.6 µM |
| Cc1ccc(Nc2nc(C)c(C(/C=C/c3ccc(/C=C/C(=N/NC(=O)C[n+]4ccccc4)c4sc(Nc5ccc(C)cc5[N+](=O)[O-])nc4C)cc3)=N\NC(=O)C[n+]3ccccc3)s2)c([N+](=O)[O-])c1 | > 35.5 µM | > 35.5 µM |
| CC(C)SSC(=O)N1CCCC1C(=O)O (stereo not drawn) | > 200 µM | > 200 µM |
| CCOC(=O)n1c2ccccc2c2c(O)c(OC)c3c(c21)C(=O)NC3=O | > 200 µM | 30.2 µM |
| O=C(O)c1ccccc1SSc1ccccc1C(=O)O | 112 µM and > 589 µM and > 200 µM | 589 µM and > 589 µM and > 200 µM |
| Cc1ccccc1C1CC(=O)CC(c2ccccc2C)C12C(=O)NC(=O)NC2=O (stereo not drawn) | > 200 µM | 105 µM |
| O=c1cc(O)c2ccccc2[nH]1 | > 200 µM | > 200 µM |
| COC1(OC)c2no[n+]([O-])c2C(OC)(OC)c2c1no[n+]2[O-] | > 200 µM | 3.89 µM |
| Cc1ccc(Nc2nc3ccccc3nc2NS(=O)(=O)c2ccc(N)cc2)cc1 | > 200 µM | 43.7 µM |
| CN1N=C(N)c2cn(C3OC(COP(=O)(O)O)C(O)C3O)c3ncnc1c23 (stereo not drawn) | > 57.5 µM | 21.4 µM |
| O=C1c2ccccc2NC(=O)C2C1C(c1ccccc1)CC2(O)c1ccccc1 (stereo not drawn) | > 200 µM | 33.1 µM |
| COC(=O)c1ncn(C)c1O | > 200 µM | > 200 µM |
| O=C(CCC(NC(=O)OCc1ccccc1)C(=O)OCc1ccccc1)Nc1cccc(OCc2ccccc2)c1 (stereo not drawn) | > 200 µM | 35.5 µM |
| CCOC(=O)/C=C1\Nc2ccccc2C(c2ccccc2)=NC1OC(C)=O (stereo not drawn) | > 20 µM | > 20 µM |
| Cn1c(=O)cc(C=Nc2ccc(O)cc2)c2ccccc21 | > 200 µM | 1.74 µM |
| CCOP(=O)(c1ccccc1)C([CH2][Sn]([CH3])([CH3])[Cl])P(=O)(OC(C)C)OC(C)C (stereo not drawn) | > 200 µM | 4.47 µM |

| SMILES | EC50 | IC50 |
| --- | --- | --- |
| Cc1ccc(NC2=NCCO2)c2c1CCC2 | > 200 µM | 33.9 µM |
| CN1N=C(c2ccncc2)OC1c1ccc(Cl)cc1Cl (stereo not drawn) | > 200 µM | 85.1 µM |
| N#Cc1cccc(N2C(=O)c3c(c(-c4ccccc4)c(-c4ccc(Sc5ccc(-c6c(-c7ccccc7)c7c(c(-c8ccccc8)c6-c6ccccc6)C(=O)N(c6cccc(C#N)c6)C7=O)cc5)cc4)c(-c4ccccc4)c3-c3ccccc3)C2=O)c1 | > 12 µM | > 12 µM |
| CC(C)[C@](O)(C(=O)OCC1=CC[N+]2([O-])CC[C@@H](O)[C@@H]12)[C@H](C)O (stereo partly drawn) | > 398 µM | > 398 µM |
| CCOC(=O)C[n+]1cccc(C2(c3cc4ccccc4[nH]3)OCCO2)c1 | > 200 µM | > 200 µM |
| COC(=O)c1cc(C(=O)O)c(=O)n2ccccc12 | > 200 µM | 174 µM |
| C=CCn1c(-c2ccc([N+](=O)[O-])cc2)csc1=N | > 200 µM | 26.3 µM |
| N=c1c2ccccc2nc2oc3cc([N+](=O)[O-])ccc3n12 | > 195 µM | 138 µM |
| CC/C=C\C/C=C\C/C=C\CCCCCCCC(=O)OCC(O)CO (stereo not drawn) | > 28.2 µM | > 28.2 µM |
| CC1C2CC(CC23OCC(CCl)O3)C1(C)C (stereo not drawn) | > 200 µM | > 200 µM |
| Cn1c(CNc2ccc(-c3n[nH]c(=S)n3C)cc2)n[nH]c1=S | > 200 µM | > 200 µM |
| COc1ccc(/C=C/C(=N/NC(=O)N/N=C(/C=C/c2ccc(OC)cc2)C(C)C)C(C)C)cc1 | > 200 µM | 37.2 µM |
| O=C(c1ccco1)n1c2ccc(Br)cc2c2nc3ccccc3nc21 | > 50.1 µM | 22.4 µM |
| O=c1c(-c2ccc(O)cc2)coc2cc(O)cc(O)c12 | > 200 µM | 5.62 µM |
| CC(C)(N=NC(C)(C)C1=NCCN1)C1=NCCN1 | > 200 µM | 105 µM and 83.2 µM |
| Cc1ccc(-c2n[nH]c(=O)[nH]2)cc1 | > 200 µM | > 200 µM |
| Cc1c2c(c(C)c3c[n+](C)ccc13)Oc1ccccc1O2 | > 20 µM | 3.72 µM |

Reference: PubChem BioAssay AID179 (DTP/NCI, 2004)
